This is an account of results in PubChem BioAssay AID1259407 (Chemical Carcinogenesis Research Information System (CCRIS), 2018).

Activity calls are given as the source filed them. The rule behind the calls is not given here.

The subject of this data set is CCRIS mutagenicity, Ames/micronucleus/aberration tests. Briefly: CCRIS mutagenicity studies.

In the case of `CC(=O)CN(CC(C)=O)N=O`, the mutagenic call (Test System: AMES SALMONELLA TYPHIMURIUM, Strain/Indicator: TA100, Metabolic Activation: HAMSTER, LIVER, S-9, 3-METHYLCHOLANTHRENE, Method: PREINCUBATION) is “active; positive”; the mutagenic call (Test System: AMES SALMONELLA TYPHIMURIUM, Strain/Indicator: TA100, Metabolic Activation: HAMSTER, LIVER, S-9, PHENOBARBITAL, Method: PREINCUBATION) is “active; positive”; the mutagenic call (Test System: AMES SALMONELLA TYPHIMURIUM, Strain/Indicator: TA100, Metabolic Activation: HAMSTER, LIVER, S-9, Method: PREINCUBATION) was “active; positive”; the mutagenic call (Test System: AMES SALMONELLA TYPHIMURIUM, Strain/Indicator: TA100, Metabolic Activation: HUMAN, LIVER, S-9, Method: PREINCUBATION) was “active; positive”; the mutagenic call (Test System: AMES SALMONELLA TYPHIMURIUM, Strain/Indicator: TA100, Metabolic Activation: MONKEY, LIVER, S-9, Method: PREINCUBATION) was “active; positive”; the mutagenic call (Test System: AMES SALMONELLA TYPHIMURIUM, Strain/Indicator: TA100, Metabolic Activation: MOUSE, LIVER, S-9, 3-METHYLCHOLANTHRENE, Method: PREINCUBATION) was “active; positive”. Further, the mutagenic call is “active; positive” (Test System: AMES SALMONELLA TYPHIMURIUM, Strain/Indicator: TA100, Metabolic Activation: MOUSE, LIVER, S-9, PHENOBARBITAL, Method: PREINCUBATION); “active; positive” (Test System: AMES SALMONELLA TYPHIMURIUM, Strain/Indicator: TA100, Metabolic Activation: MOUSE, LIVER, S-9, Method: PREINCUBATION); “inactive; negative” (Test System: AMES SALMONELLA TYPHIMURIUM, Strain/Indicator: TA100, Metabolic Activation: NONE, Method: PREINCUBATION); “active; positive” (Test System: AMES SALMONELLA TYPHIMURIUM, Strain/Indicator: TA100, Metabolic Activation: RABBIT, LIVER, S-9, Method: PREINCUBATION); “active; positive” (Test System: AMES SALMONELLA TYPHIMURIUM, Strain/Indicator: TA100, Metabolic Activation: RAT, LIVER, CYTOSOL, PCB, Method: PREINCUBATION); “active; positive” (Test System: AMES SALMONELLA TYPHIMURIUM, Strain/Indicator: TA100, Metabolic Activation: RAT, LIVER, MICROSOMES AND CYTOSOL, PCB, Method: PREINCUBATION). Besides, the mutagenic call was “active; positive” (Test System: AMES SALMONELLA TYPHIMURIUM, Strain/Indicator: TA100, Metabolic Activation: RAT, LIVER, MICROSOMES AND G6PDH, PCB, Method: PREINCUBATION); “active; positive” (Test System: AMES SALMONELLA TYPHIMURIUM, Strain/Indicator: TA100, Metabolic Activation: RAT, LIVER, MICROSOMES, PCB, Method: PREINCUBATION); “active; positive” (Test System: AMES SALMONELLA TYPHIMURIUM, Strain/Indicator: TA100, Metabolic Activation: RAT, LIVER, S-9 (HEATED), PCB, Method: PREINCUBATION); “active; positive” (Test System: AMES SALMONELLA TYPHIMURIUM, Strain/Indicator: TA100, Metabolic Activation: RAT, LIVER, S-9, 3-METHYLCHOLANTHRENE, Method: PREINCUBATION); “active; positive” (Test System: AMES SALMONELLA TYPHIMURIUM, Strain/Indicator: TA100, Metabolic Activation: RAT, LIVER, S-9, AROCLOR 1254, Method: PREINCUBATION); “active; positive” (Test System: AMES SALMONELLA TYPHIMURIUM, Strain/Indicator: TA100, Metabolic Activation: RAT, LIVER, S-9, N-BENZYLIMIDAZOLE, Method: PREINCUBATION). Besides, the mutagenic call (Test System: AMES SALMONELLA TYPHIMURIUM, Strain/Indicator: TA100, Metabolic Activation: RAT, LIVER, S-9, PCB, Method: PREINCUBATION) was “active; positive”; the mutagenic call (Test System: AMES SALMONELLA TYPHIMURIUM, Strain/Indicator: TA100, Metabolic Activation: RAT, LIVER, S-9, PHENOBARBITAL, Method: PREINCUBATION) was “active; positive”; the mutagenic call (Test System: AMES SALMONELLA TYPHIMURIUM, Strain/Indicator: TA100, Metabolic Activation: RAT, LIVER, S-9, Method: PREINCUBATION) was “active; positive”; the mutagenic call (Test System: AMES SALMONELLA TYPHIMURIUM, Strain/Indicator: TA100, Metabolic Activation: RAT, LIVER, S-9 WITHOUT NADP+, PCB, Method: PREINCUBATION) is “active; positive”; the mutagenic call (Test System: AMES SALMONELLA TYPHIMURIUM, Strain/Indicator: TA100, Method: PREINCUBATION) is “active; positive”; the mutagenic call (Test System: AMES SALMONELLA TYPHIMURIUM, Strain/Indicator: TA104, Metabolic Activation: RAT, LIVER, S-9, AROCLOR 1254, Method: PREINCUBATION) is “inactive; negative”. In addition, the mutagenic call was “active; positive” (Test System: AMES SALMONELLA TYPHIMURIUM, Strain/Indicator: TA1535, Metabolic Activation: RAT, LIVER, S-9, AROCLOR 1254, Method: PREINCUBATION); “active; positive” (Test System: AMES SALMONELLA TYPHIMURIUM, Strain/Indicator: TA1975, Metabolic Activation: RAT, LIVER, S-9, AROCLOR 1254, Method: PREINCUBATION); “active; positive” (Test System: CHINESE HAMSTER V-79, Strain/Indicator: V-79/6-THIOGUANINE, Metabolic Activation: HAMSTER, PANCREAS, DUCT CELL-MEDIATED, Method: STANDARD PLATE); “active; positive” (Test System: CHINESE HAMSTER V-79, Strain/Indicator: V-79/OUABAIN, Metabolic Activation: HAMSTER, HEPATOCYTES, Method: CELL-MEDIATED); “active; positive” (Test System: CHINESE HAMSTER V-79, Strain/Indicator: V-79/OUABAIN, Metabolic Activation: HAMSTER, PANCREAS, ACINAR CELL-MEDIATED, Method: STANDARD PLATE).
In the case of `[CH3][Sn]([Cl])([Cl])[Cl]`, the mutagenic call (Test System: AMES SALMONELLA TYPHIMURIUM, Strain/Indicator: TA98, Metabolic Activation: NONE, Method: SUSPENSION/PLATE) is “inactive; negative” and the mutagenic call (Test System: AMES SALMONELLA TYPHIMURIUM, Strain/Indicator: TA100, Metabolic Activation: NONE, Method: SUSPENSION/PLATE) is “inactive; negative”.
With `CC/C(=C(/CC)c1ccc(OP(=O)(O)O)cc1)c1ccc(OP(=O)(O)O)cc1`, the mutagenic call is “inactive; negative” (Test System: AMES SALMONELLA TYPHIMURIUM, Strain/Indicator: TA98, Metabolic Activation: NONE, Method: STANDARD PLATE); “inactive; negative” (Test System: AMES SALMONELLA TYPHIMURIUM, Strain/Indicator: TA100, Metabolic Activation: NONE, Method: STANDARD PLATE); “inactive; negative” (Test System: E. COLI, Strain/Indicator: WP2 (HCR), Metabolic Activation: NONE, Method: STANDARD PLATE).
